Results: US20040106626A1, “6-Membered unsaturated heterocyclic compounds useful for selective inhibition of the coagulation cascade” (Pharmacia Corporation, priority 2001, published 2004)

Tests used:
Assay type in all cases: biochemical
[1] = target: T1, recombinant soluble tissue factor and recombinant human factor VIIa (TF-VIIa) (Homo sapiens, UniProt P08709); experiment: TF-VIIa assay (chromogenic substrate hydrolysis); conditions: reported only as less than or greater than 0.1 uM
T1 construct: conversion of coagulation factor VII to VIIa by factor Xa; purchased American Diagnostica, Greenwich CT; host or cells: soluble TF made in house in E. coli
T1 sequence (P08709 213-466 limits assumed): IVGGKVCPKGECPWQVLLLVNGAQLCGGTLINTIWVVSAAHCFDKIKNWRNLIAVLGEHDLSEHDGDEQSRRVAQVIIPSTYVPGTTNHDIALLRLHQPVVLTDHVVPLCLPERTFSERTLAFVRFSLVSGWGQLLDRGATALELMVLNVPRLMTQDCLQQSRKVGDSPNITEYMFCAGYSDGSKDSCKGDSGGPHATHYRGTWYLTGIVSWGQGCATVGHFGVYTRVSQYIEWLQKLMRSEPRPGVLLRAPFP
T1 sequence (P08709 61-212 limits assumed): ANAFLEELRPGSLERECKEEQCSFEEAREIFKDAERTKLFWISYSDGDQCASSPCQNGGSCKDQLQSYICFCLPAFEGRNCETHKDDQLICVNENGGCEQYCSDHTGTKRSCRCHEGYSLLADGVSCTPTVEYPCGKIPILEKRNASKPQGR
T1 sequence (P13726 33-251 partner limits assumed): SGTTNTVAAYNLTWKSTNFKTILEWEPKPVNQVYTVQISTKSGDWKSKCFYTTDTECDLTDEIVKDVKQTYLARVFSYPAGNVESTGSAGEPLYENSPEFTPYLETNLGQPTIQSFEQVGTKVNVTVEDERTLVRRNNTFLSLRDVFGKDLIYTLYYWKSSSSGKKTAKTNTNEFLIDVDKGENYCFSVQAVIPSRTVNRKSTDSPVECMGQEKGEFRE
Outline: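 Chromogenic read at OD405, compared with control for percent inhibition. Substrate N-methylsulfonyl-D-phe-gly-arg-p-nitroaniline at 0.4 mM is cleaved by recombinant human VIIa (2 nM) complexed with soluble TF (100 nM). Buffer: pH 8.0 Tris-HCl 50 mM, CaCl2 5 mM, NaCl 100 mM, BSA 0.1%.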

Human thrombin = target: T2, Human thrombin (Homo sapiens, UniProt P00734); experiment: Thrombin assay (chromogenic substrate); conditions: reported only as less than or greater than 30 uM; read-out: Thrombin (II) IC50
T2 construct: converts prothrombin (II) to thrombin (IIa); purchased Calbiochem, La Jolla, Calif
Outline: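 Percent inhibition derived by comparing OD405 nm of compound-treated and control samples. Thrombin cleavage of a p-nitroanilide chromogenic substrate provides the signal.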

[2] = test system: Normal human pooled plasma; experiment: Prothrombin time (PT) clotting assay; conditions: concentration at which prothrombin time is prolonged by 2x normal, reported as less than or greater than 50 uM
Outline: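 Normal human pooled plasma incubated with 100 uM compound or saline, then thromboplastin (human tissue factor) added and clotting time recorded in a coagulation machine. Compounds exceeding 3× normal PT (11.0 s) are titrated to find the concentration doubling PT.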

Human factor Xa = target: T3, Human factor Xa (Homo sapiens, UniProt P00742); experiment: Xa assay (chromogenic substrate S-2765); conditions: reported only as less than or greater than 30 uM; read-out: Factor Xa (II) IC50
T3 construct: purchased Enzyme Research Laboratories, South Bend Ind
T3 sequence (P00742 235-488 limits assumed): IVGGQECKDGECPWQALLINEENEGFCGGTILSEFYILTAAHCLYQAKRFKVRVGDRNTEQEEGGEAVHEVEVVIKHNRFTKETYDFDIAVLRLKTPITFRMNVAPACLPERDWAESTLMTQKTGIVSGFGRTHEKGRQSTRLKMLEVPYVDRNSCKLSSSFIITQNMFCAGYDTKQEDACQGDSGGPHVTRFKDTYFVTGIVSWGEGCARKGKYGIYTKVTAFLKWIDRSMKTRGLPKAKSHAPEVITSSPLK
T3 sequence (P00742 41-179 limits assumed): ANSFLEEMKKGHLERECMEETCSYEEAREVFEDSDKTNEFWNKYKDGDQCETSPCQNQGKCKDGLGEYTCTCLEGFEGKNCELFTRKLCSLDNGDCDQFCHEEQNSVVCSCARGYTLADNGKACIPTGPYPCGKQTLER
Outline: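 Chromogenic readout: S-2765 hydrolysis (0.15 mM) by 0.3 nM human FXa was monitored at 405 nm after 60 min at room temperature, with a time-zero background read. Buffer: 50 mM Tris-HCl, pH 8.0, 100 mM NaCl, 0.1% BSA. Inhibition is relative to buffer-only controls.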

Compound	IC50 [1]	IC50 (Human thrombin)	PT (Prothrombin time) 2xPT [2]	IC50 (Human factor Xa)
CC(C)Nc1ncc(-c2cc(N)cc(N)c2)n(CC(=O)NCc2ccc(C(=N)N)c(O)c2)c1=O [Example 79]	> 0.1 µM	> 30 µM	<50.0 µM	> 30 µM
CC(C)Nc1ncc(-c2cc(N)cc(C(=O)NCCC(=O)O)c2)n(CC(=O)NCc2ccc(C(=N)N)cc2)c1=O.O=C(O)C(F)(F)F.O=C(O)C(F)(F)F [Example 172]	< 0.1 µM	> 30 µM	<50.0 µM	> 30 µM
CC(C)CCNc1cc(N)cc(-c2cnc(NC(C)C)c(=O)n2CC(=O)NCc2ccc(C(=N)N)cc2)c1 [Example 102]	< 0.1 µM	< 30 µM	<50.0 µM	> 30 µM
CCC(CC)CS(=O)(=O)c1cc(N)cc(-c2cnc(NC(C)C)c(=O)n2CC(=O)NCc2ccc(C(=N)N)cc2)c1.O=C(O)C(F)(F)F.O=C(O)C(F)(F)F [Example 229]	< 0.1 µM	> 30 µM	<50.0 µM	> 30 µM
CCCC(C)C(=O)Nc1cc(N)cc(-c2cnc(NC(C)C)c(=O)n2CC(=O)NCc2ccc(C(=N)N)cc2)c1 (stereo not drawn) [Example 104]	< 0.1 µM	< 30 µM	<50.0 µM	> 30 µM
CC(C)Nc1ncc(-c2cc(N)cc(NS(=O)(=O)c3ccc4ccccc4c3)c2)n(CC(=O)NCc2ccc(C(=N)N)cc2)c1=O [Example 90]	< 0.1 µM	> 30 µM	<50.0 µM	> 30 µM
CC(C)Nc1ncc(-c2cc(N)cc(NC(=O)C3CCCC3)c2)n(CC(=O)NCc2ccc(C(=N)N)cc2)c1=O [Example 100]	< 0.1 µM	< 30 µM	<50.0 µM	> 30 µM
CC(C)Nc1ncc(-c2cc(N)cc(NCc3ccccc3)c2)n(CC(=O)NCc2ccc(C(=N)N)cc2)c1=O [Example 98]	< 0.1 µM	> 30 µM	<50.0 µM	> 30 µM
CC[C@H](C)NC(=O)c1cc(N)cc(-c2cnc(NC(C)C)c(=O)n2CC(=O)NCc2ccc(C(=N)N)cc2O)c1.O=C(O)C(F)(F)F [Example 167, 3-amino-5-[1-[2-({4-[amino(imino)methyl]-2-hydroxybenzyl}amino)-2-oxoethyl]-5-(isopropylamino)-6-oxo-1,6-dihydropyrazin-2-yl]-N-[(1S)-1-methylpropyl]benzamide]	< 0.1 µM	< 30 µM	<50.0 µM	> 30 µM
COc1cccc(CNC(=O)c2cc(N)cc(-c3cnc(NC(C)C)c(=O)n3CC(=O)NCc3ccc(C(=N)N)cc3)c2)c1.O=C(O)C(F)(F)F [Example 177]	< 0.1 µM	> 30 µM	<50.0 µM	> 30 µM
CC(C)Nc1ncc(-c2cc(N)cc(S(=O)(=O)CC(C)(C)C)c2)n(CC(=O)NCc2ccc(C(=N)N)cc2)c1=O.O=C(O)C(F)(F)F.O=C(O)C(F)(F)F [Example 228]	< 0.1 µM	> 30 µM	<50.0 µM	> 30 µM
CC(C)Nc1ncc(-c2cc(N)cc(NS(=O)(=O)c3ccc(OC(F)(F)F)cc3)c2)n(CC(=O)NCc2ccc(C(=N)N)cc2)c1=O [Example 88]	> 0.1 µM	> 30 µM	<50.0 µM	> 30 µM
CC(C)Nc1ncc(-c2cc(N)cc(NCCC(C)c3ccccc3)c2)n(CC(=O)NCc2ccc(C(=N)N)cc2)c1=O (stereo not drawn) [Example 101]	< 0.1 µM	< 30 µM	<50.0 µM	> 30 µM
CC(C)Nc1ncc(-c2cc(N)cc(C(=O)NCc3ccc(O)cc3)c2)n(CC(=O)NCc2ccc(C(=N)N)cc2)c1=O.O=C(O)C(F)(F)F [Example 176]	< 0.1 µM	> 30 µM	<50.0 µM	> 30 µM
CC(C)Nc1ncc(-c2cc(N)cc(C(F)(F)F)c2)n(CC(=O)NCc2ccc(C(=N)N)c(O)c2)c1=O [Example 49]	> 0.1 µM	> 30 µM	<50.0 µM	> 30 µM
CC(C)Nc1ncc(-c2cc(N)cc(C(=O)NCc3cccnc3)c2)n(CC(=O)NCc2ccc(C(=N)N)cc2)c1=O [Example 61]	< 0.1 µM	> 30 µM	<50.0 µM	> 30 µM
CC(C)Nc1ncc(-c2cc(N)cc(-c3nnn[nH]3)c2)n(CC(=O)NCc2ccc(C(=N)N)cc2)c1=O.O=C(O)C(F)(F)F [Example 227, N-{4-[amino(imino)methyl]benzyl}-2-[6-[3-amino-5-(1H-tetraazol-5-yl)phenyl]-3-(isopropylamino)-2-oxopyrazin-1 (2H)-yl]acetamide]	< 0.1 µM	> 30 µM	<50.0 µM	> 30 µM
CC(C)Nc1ncc(-c2cc(N)cc(NC(=O)CC(C)(C)C)c2)n(CC(=O)NCc2ccc(C(=N)N)cc2)c1=O.O=C(O)C(F)(F)F.O=C(O)C(F)(F)F [Example 133]	< 0.1 µM	< 30 µM	<50.0 µM	> 30 µM
COC(=O)[C@@H](NC(=O)c1cc(N)cc(-c2cnc(NC(C)C)c(=O)n2CC(=O)NCc2ccc(C(=N)N)cc2)c1)c1ccccc1 [Example 87]	< 0.1 µM	< 30 µM	<50.0 µM	> 30 µM
CC[C@@H](C)NC(=O)c1cc(N)cc(-c2cnc(NC(C)C)c(=O)n2CC(=O)NCc2ccc(C(=N)N)cc2O)c1.O=C(O)C(F)(F)F [Example 240]	< 0.1 µM	> 30 µM	<50.0 µM	> 30 µM
CCCCC(CC)C(=O)Nc1cc(N)cc(-c2cnc(NC(C)C)c(=O)n2CC(=O)NCc2ccc(C(=N)N)cc2)c1.O=C(O)C(F)(F)F.O=C(O)C(F)(F)F (stereo not drawn) [Example 137]	< 0.1 µM	< 30 µM	<50.0 µM	> 30 µM
CCCCOC(=O)c1cc(N)cc(-c2cnc(NC(C)C)c(=O)n2CC(=O)NCc2ccc(C(=N)N)cc2)c1.O=C(O)C(F)(F)F [Example 187]	< 0.1 µM	> 30 µM	<50.0 µM	> 30 µM
CC(C)Nc1ncc(-c2cc(N)cc(OCC3CCCC3)c2)n(CC(=O)NCc2ccc(C(=N)N)cc2)c1=O.O=C(O)C(F)(F)F.O=C(O)C(F)(F)F [Example 220]	< 0.1 µM	> 30 µM	<50.0 µM	> 30 µM
CC(C)Nc1ncc(-c2cc(N)cc(/C=C/Cc3ccccc3)c2)n(CC(=O)NCc2ccc(C(=N)N)cc2)c1=O [Example 80, N-{4-[amino(imino)methyl]benzyl}-2-[6-{3-amino-5-[(1E)-3-phenylprop-1-enyl]phenyl}-3-(isopropylamino)-2-oxopyrazin-1 (2H)-yl]acetamide]	< 0.1 µM	> 30 µM	>50.0 µM	> 30 µM
CC(C)Nc1ncc(-c2cc(N)cc(C(=O)NC(C)c3ccccc3)c2)n(CC(=O)NCc2ccc(C(=N)N)cc2)c1=O (racemic) [Example 56]	< 0.1 µM	< 30 µM	<50.0 µM	> 30 µM
CC[C@H](C)NC(=O)c1cc(N)cc(-c2cnc(NC(C)C)c(=O)n2CC(=O)NCc2ccc(C(=N)N)cc2)c1.O=C(O)C(F)(F)F [Example 127]	< 0.1 µM	< 30 µM	<50.0 µM	> 30 µM
CC[C@H](C)NC(=O)c1cc(N)cc(-c2cnc(N[C@H](C)C(C)C)c(=O)n2CC(=O)NCc2ccc(C(=N)N)cc2)c1.O=C(O)C(F)(F)F.O=C(O)C(F)(F)F [Example 202]	< 0.1 µM	< 30 µM	<50.0 µM	> 30 µM
CC(C)Nc1ncc(-c2cc(N)cc(NC(=O)C(C)C)c2)n(CC(=O)NCc2ccc(C(=N)N)cc2)c1=O [Example 50, N-{3-amino-5-[1-[2-({4-[amino(imino)methyl]benzyl}amino)-2-oxoethyl]-5-(isopropylamino)-6-oxo-1,6-dihydropyrazin-2-yl]phenyl}-2-methylpropanamide]	< 0.1 µM	< 30 µM	<50.0 µM	> 30 µM
CC(C)Nc1ncc(-c2cc(N)cc(C(=O)NCc3cc(C(F)(F)F)cc(C(F)(F)F)c3)c2)n(CC(=O)NCc2ccc(C(=N)N)cc2)c1=O [Example 59]	> 0.1 µM	> 30 µM	>50.0 µM	> 30 µM
CC(C)Nc1ncc(-c2cc(N)cc(C(=O)NCc3cccc(C(F)(F)F)c3)c2)n(CC(=O)NCc2ccc(C(=N)N)cc2)c1=O.O=C(O)C(F)(F)F.O=C(O)C(F)(F)F [Example 10]	< 0.1 µM	> 30 µM	<50.0 µM	> 30 µM
